Here are results for three molecules from patent US6632621B1, “G protein-coupled receptor-like receptors and modulators thereof” (priority 1999, dated 2003).

Where two headings read alike, the source gives them in different places. Where no end group is shown, it is not given here.

One test has as its target human D2 receptor (Homo sapiens, UniProt P14416). Conditions: 37° C. versus temperature-shift transfection protocol. How it is done: (§1) Aliquots of cell membranes prepared as described above and stored at −70° C. were thawed, homogenized, and diluted into buffer containing 20 mM HEPES, pH 7.4, 10 mM MgCl2, 1 mM EDTA, and 100 mM NaCl at a concentration of 10-50 μg/ml. Reaction mixtures were prepared in 96-well polypropylene plate, Nunc. Twenty microliters of a 10× putative modulator compound (including but not limited to potential peptide ligands) solution or a water control (20 μl), 18.2 µM GDP (0.11 ml, 10 μM final concentration), and a membrane preparation were mixed and placed on ice. The modulator/ligand-GDP-membrane mixtures were incubated for 20 minutes at room temperature on a shaking platform and then placed on ice.

Test [1] addresses T1, CEGPCR16 receptor (Caenorhabditis elegans, UniProt Q9XXU4).
T1 sequence (Q9XXU4 1-365): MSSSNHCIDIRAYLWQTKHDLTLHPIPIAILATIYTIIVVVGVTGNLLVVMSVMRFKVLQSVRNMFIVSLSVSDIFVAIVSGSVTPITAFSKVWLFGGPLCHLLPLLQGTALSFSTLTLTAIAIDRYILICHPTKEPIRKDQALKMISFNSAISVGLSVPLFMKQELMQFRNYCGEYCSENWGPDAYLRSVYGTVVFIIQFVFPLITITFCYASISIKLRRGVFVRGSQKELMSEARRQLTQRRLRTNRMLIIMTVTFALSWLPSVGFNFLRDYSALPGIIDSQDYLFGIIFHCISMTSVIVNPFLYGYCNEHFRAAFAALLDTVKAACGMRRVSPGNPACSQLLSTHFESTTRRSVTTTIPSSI
The test can be described thus: [35S]GTPγS binding assay, CEGPCR16 expressed in CHO cells. It counts as biochemical, C. elegans. The protocol:
(§2) Recombinant pCR3.1 clones encoding invertebrate GPCR-like receptors were transformed into wild-type CHO-K1 cells and functional expression was achieved using a temperature-shift incubation protocol. The CHO-K1 cells were cultured at 37° C. in a humidified atmosphere of 5% CO2 in air in DMEM medium supplemented with 10% heat-inactivated fetal bovine serum (i.e., FBS), 10 μg/ml gentamicin, and 0.1 mM nonessential amino acids to give complete DMEM medium. Additionally, for incubations at temperatures lower than 37° C., the medium was fortified with 10 mM HEPES (pH 7.4). Cells were transfected with recombinant pCR3.1 clones containing GPCR-like receptor DNAs, using LipofectAMINE PLUS™, essentially according to the manufacturer's instructions. […] In separate plastic tubes, PLUS (20 μl/plate; Life Technologies) was added to 0.75 ml/plate of recombinant plasmid DNA in OptiMEM (5 μg/plate; Gibco/BRL—Life Technologies), mixed and incubated at room temperature for 15 minutes. Separately, LipofectAMINE (30 μl/plate) was mixed with 0.75 ml OptiMEM and added to the pre-complexed DNA/PLUS mixture and incubated at room temperature for 15 minutes. The culture medium was then replaced with serum-free transfection medium (DMEM, 5 ml/plate). The DNA-PLUS-LipofectAMINE complex was then added to the plates (1.5 ml/plate) and mixed gently into the medium, followed by a 3 hour incubation at 37° C. in 5% CO2. At this time, the medium was supplemented with complete DMEM medium containing 20% FBS (6.5 ml/plate) and incubation was continued at 37° C. in 5% CO2. After a total of 24 hours at 37° C. in 5% CO2, the medium was replaced with complete DMEM medium fortified with 10 mM HEPES (10 ml/plate) and the cells were moved to an incubator maintained at 28-30° C. in a humidified atmosphere of 5% CO2 in air. The incubation continued for an additional 24 hours, typically at the lower temperature indicated above. A plasmid encoding Green Fluorescent Protein (i.e., GFP, 4 μg/plate) was used for transient GFP expression in CHO-K1 cells to estimate the transfection yields under the same conditions as used for GPCR-like receptor polynucleotides.
(§3) To assess expression, membranes were prepared from transfected CHO-K1 cells. Transfected cells were washed once with ice-cold Dulbecco's phosphate-buffered saline (i.e., PBS), 5 ml per 10 cm plate, and the cells were scraped into 5 ml of the same buffer. Cell suspensions from multiple plates were combined and centrifuged at 500×g for 10 minutes at 4° C. The cell pellet was reconstituted in ice-cold TEE (25 mM Tris, pH 7.4, 5 mM EGTA, 5 mM EDTA). Convenient aliquots were snap-frozen in liquid nitrogen and stored at −70° C. After thawing, the cells were homogenized and centrifuged at 500×g for 5 minutes at 4° C. to pellet nuclei and unbroken cells. Tile supernatant was centrifuged at 47,000×g for 30 minutes at 4° C. The membrane pellet was washed once with TEE, resuspended in 20 mM HEPES, pH 7.4, 100 mM NaCl, 10 mM MgCl2, 1 mM EDTA (assay buffer), distributed into aliquots of 0.5-1.0 ml, and frozen in liquid nitrogen. Membrane aliquots were stored at −70° C. Membrane protein concentration was determined using the BCA Protein Assay Reagent from Pierce (Rockford, Ill.), with bovine serum albumin (i.e., BSA) as a standard.
as §1
On the technique in general: GTPγS is a poorly hydrolysed GTP analogue; its binding reports G protein activation.

The target of test [2] is T1, CEGPCR16 receptor. Described as above. Type of test: biochemical, C. elegans. As to conditions: membranes from cells transfected and maintained at 37° C.
In another test the target is T2, CEGPCR7 receptor (Caenorhabditis elegans, UniProt Q18534).
T2 construct: Each of the 22 putative GPCR-like receptor clones appeared to contain a full-length coding region; expressed in transfected cells; host or cells: CHO-K1, transient, pCR3.1 clone, 37 to 28 C temperature shift
T2 sequence (Q18534 1-457): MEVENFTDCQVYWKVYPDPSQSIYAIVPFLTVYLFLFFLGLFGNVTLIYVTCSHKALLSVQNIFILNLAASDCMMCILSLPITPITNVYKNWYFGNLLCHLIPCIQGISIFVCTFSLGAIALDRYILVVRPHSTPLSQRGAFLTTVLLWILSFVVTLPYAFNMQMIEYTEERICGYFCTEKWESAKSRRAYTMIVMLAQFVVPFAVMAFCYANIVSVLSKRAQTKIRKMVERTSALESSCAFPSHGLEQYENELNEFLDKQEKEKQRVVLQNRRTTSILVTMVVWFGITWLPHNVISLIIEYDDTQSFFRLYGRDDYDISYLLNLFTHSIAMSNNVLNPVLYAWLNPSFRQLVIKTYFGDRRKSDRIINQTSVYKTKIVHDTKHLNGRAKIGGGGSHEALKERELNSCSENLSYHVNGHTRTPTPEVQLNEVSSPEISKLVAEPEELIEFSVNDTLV
Nature of the test: [35S]GTPγS binding assay, membranes of CHO cells transfected with CEGPCR7. It counts as biochemical, C. elegans. How it is done: as §2, §3
Aliquots of cell membranes prepared as described above and stored at −70° C. were thawed, homogenized, and diluted into buffer containing 20 mM HEPES, pH 7.4, 10 mM MgCl2, 1 mM EDTA, and 100 mM NaCl at a concentration of 10-50 μg/ml.

In test [3] the target is T3, CEGPCR5 (Caenorhabditis elegans, UniProt Q18179).
T3 sequence (Q18179 1-402): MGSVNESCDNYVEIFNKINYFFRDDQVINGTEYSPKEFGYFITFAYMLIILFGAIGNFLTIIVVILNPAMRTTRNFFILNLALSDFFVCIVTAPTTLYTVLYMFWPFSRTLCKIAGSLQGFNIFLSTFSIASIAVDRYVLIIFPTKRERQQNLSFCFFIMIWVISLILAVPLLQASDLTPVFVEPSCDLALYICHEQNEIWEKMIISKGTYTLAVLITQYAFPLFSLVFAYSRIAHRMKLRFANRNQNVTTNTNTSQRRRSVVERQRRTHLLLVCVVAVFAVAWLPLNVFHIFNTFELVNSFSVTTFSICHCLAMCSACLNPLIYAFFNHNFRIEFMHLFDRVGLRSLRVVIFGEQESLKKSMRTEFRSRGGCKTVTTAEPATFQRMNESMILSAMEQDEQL
The test can be described thus: [35S]GTPγS binding assay, CEGPCR5 expressed in CHO cells. It counts as biochemical, C. elegans.

For another test, the target named is T4, CEGPCR12h receptor (Caenorhabditis elegans, UniProt Q20275).
T4 sequence (Q20275 1-402): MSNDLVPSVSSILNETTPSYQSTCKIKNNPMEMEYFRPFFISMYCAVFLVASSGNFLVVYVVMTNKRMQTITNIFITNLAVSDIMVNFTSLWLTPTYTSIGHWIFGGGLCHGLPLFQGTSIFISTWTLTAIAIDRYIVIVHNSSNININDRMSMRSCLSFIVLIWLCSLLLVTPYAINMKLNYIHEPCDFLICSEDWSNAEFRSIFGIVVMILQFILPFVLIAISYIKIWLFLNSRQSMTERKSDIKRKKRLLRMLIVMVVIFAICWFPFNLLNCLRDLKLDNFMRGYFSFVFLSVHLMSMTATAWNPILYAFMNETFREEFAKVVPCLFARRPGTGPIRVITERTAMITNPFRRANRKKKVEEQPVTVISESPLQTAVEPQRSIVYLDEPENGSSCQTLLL
The test can be described thus: [35S]GTPγS binding assay, CEGPCR12h expressed in CHO cells. Type of test: biochemical, C. elegans. As to conditions: Table 11; peptides tested at 5 μM.

In test [4] the target is T3, CEGPCR5. Nature of the test: [35S]GTPγS binding assay, CEGPCR5 expressed in CHO cells. It counts as biochemical, C. elegans. Conditions: membranes from cells transfected and maintained at 37° C.
Setting [5] is: temperature shift to 28° C. 24 hours after transfection.

human D2 receptor, sequence (P14416 whole entry): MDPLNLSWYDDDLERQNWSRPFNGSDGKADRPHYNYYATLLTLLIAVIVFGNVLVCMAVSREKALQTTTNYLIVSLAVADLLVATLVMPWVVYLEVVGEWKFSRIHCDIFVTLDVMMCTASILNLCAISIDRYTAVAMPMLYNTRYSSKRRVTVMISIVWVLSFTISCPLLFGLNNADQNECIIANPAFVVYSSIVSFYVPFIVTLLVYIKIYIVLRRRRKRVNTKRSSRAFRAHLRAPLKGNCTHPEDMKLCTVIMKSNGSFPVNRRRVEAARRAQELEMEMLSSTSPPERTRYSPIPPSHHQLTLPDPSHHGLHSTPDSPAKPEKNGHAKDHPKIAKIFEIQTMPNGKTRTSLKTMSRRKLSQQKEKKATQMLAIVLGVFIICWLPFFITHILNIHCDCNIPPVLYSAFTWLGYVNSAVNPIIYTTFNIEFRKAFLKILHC

Consider `NCCc1ccc(O)c(O)c1` [dopamine], for which the “responses of the receptor to its ligand” value at human D2 receptor is “the same regardless of the transfection protocol used”.

Turning to ASEDALFGTMRF-NH2 [ASEDALFGTMRF-NH2], the EC50 at CEGPCR16 receptor [1] (Table 10, one range for the group of peptides, read-out: EC50 range) was in the range of 60 to 300 nM. Besides, the “ligand-induced [35S]GTPγS binding” value on CEGPCR16 receptor [1] (setting [5]) is given as “significant stimulation”. The “receptor activation by matched ligand” value at CEGPCR16 receptor [2] is “not detectably activated”.

Consider H-GLGPRPLRF-NH2 [GLGPRPLRF-NH2], for which the EC50 at CEGPCR7 receptor (EC50, single values) is 207 nM; on CEGPCR7 receptor (EC50 range, Table 7, one range for the group of peptides), 200 to 250 nM; at CEGPCR5 [3], 1 to 10 nM; on CEGPCR5 [3] (in words) it was “low nanomolar range”. In addition, the “ligand-induced [35S]GTPγS binding, fold elevation in activity” value on CEGPCR7 receptor (cooling (28° C.) protocol) came to 2.6 fold. At CEGPCR5 [3] (setting [5]), the “ligand-induced [35S]GTPγS binding” value is given as “significant stimulation”. The “activity at single concentration” value on CEGPCR12h receptor is recorded as “active at”. The “receptor activation by matched ligand” value on CEGPCR5 [4] is reported as “not detectably activated”.

What is called EC50 is the concentration giving half of the maximal effect.
